Where two headings read alike, the source gives them in different places.

Consider 31 compounds from patent US20150141381A1, “TETRACYCLINE COMPOUNDS HAVING TARGET THERAPEUTIC ACTIVITIES” (Paratek Pharmaceuticals, Inc., priority 2001, published 2015).

One experiment concerns S. aureus RN450. Nature of the experiment: In Vitro Anti-Bacterial Activity Assay (MIC), gram positive. Format: cell-based. The following applies: Staphylococcus aureus, RN450, 18 h.
For the next experiment, the system named is E. coli mL308 225. Nature of the experiment: In Vitro Anti-Bacterial Activity Assay (MIC), gram negative. Format: cell-based. Particulars: Escherichia coli, ML308225, 18 h.
Where [1] appears, read: MIC class, Table 3, read-out: Antibiotic Activity Gram +.
[2] abbreviates: MIC class, Table 3, read-out: Antibiotic Activity Gram −.
Where [3] appears, read: gram positive bacteria, read-out: Antibiotic Activity Gram + (MIC).
The mark [4] stands for this setting: gram negative bacteria, read-out: Antibiotic Activity Gram − (MIC).
The mark [5] stands for this setting: MIC class, Table 3 (Continued), read-out: Gram+ activity.
The mark [6] stands for this setting: MIC class, Table 3 (Continued), read-out: Gram− activity.

For `CN1CCN(Cc2ccc(-c3ccc(O)c4c3C[C@H]3C[C@H]5[C@H](N(C)C)C(O)=C(C(N)=O)C(=O)[C@@]5(O)C(O)=C3C4=O)cc2)CC1` [MF], the MIC in the experiment with S. aureus RN450 (setting [1]) and in the experiment on E. coli mL308 225 (setting [2]) was below 4 µg/mL in each case.
As to `CNC(=O)C1CCN(Cc2cc(N(C)C)c3c(c2O)C(=O)C2=C(O)[C@]4(O)C(=O)C(C(N)=O)=C(O)[C@@H](N(C)C)[C@@H]4C[C@@H]2C3)CC1`, the MIC in the experiment on S. aureus RN450 (setting [3]) and with E. coli mL308 225 (setting [4]) was below 4 µg/mL each time.
As to `CN(C)c1cc(CNC(=O)C2CCCN2)c(O)c2c1C[C@H]1C[C@H]3[C@H](N(C)C)C(O)=C(C(N)=O)C(=O)[C@@]3(O)C(O)=C1C2=O` (some centres unmarked), the MIC in the experiment on S. aureus RN450 (setting [3]) and in the experiment on E. coli mL308 225 (setting [4]) was above 4 µg/mL in each case.
Consider `CN(C)[C@@H]1C(O)=C(C(N)=O)C(=O)[C@@]2(O)C(O)=C3C(=O)c4c(O)ccc(-c5cncnc5)c4C[C@H]3C[C@@H]12` [NL], for which the MIC with S. aureus RN450 (setting [1]) and with E. coli mL308 225 (setting [2]) was below 4 µg/mL in each case.
For the compound `Cc1noc(C)c1S(=O)(=O)NCc1cc(N(C)C)c2c(c1O)C(=O)C1=C(O)[C@]3(O)C(=O)C(C(N)=O)=C(O)[C@@H](N(C)C)[C@@H]3C[C@@H]1C2`, the MIC in the experiment on S. aureus RN450 (setting [3]) was below 4 µg/mL; in the experiment on E. coli mL308 225 (setting [4]), above 4 µg/mL.
For `CNCOc1ccc(-c2ccc(O)c3c2C[C@H]2C[C@H]4[C@H](N(C)C)C(O)=C(C(N)=O)C(=O)[C@@]4(O)C(O)=C2C3=O)cc1`, the MIC in the experiment with S. aureus RN450 (setting [3]) and in the experiment on E. coli mL308 225 (setting [4]) was below 4 µg/mL throughout.
Consider `CN(C)[C@@H]1C(O)=C(C(N)=O)C(=O)[C@@]2(O)C(O)=C3C(=O)c4c(O)ccc(-c5ccc(CNC6CCCCC6)o5)c4C[C@H]3C[C@@H]12` [LK], for which the MIC in the experiment on S. aureus RN450 (setting [1]) and in the experiment on E. coli mL308 225 (setting [2]) was below 4 µg/mL each time.
`CC(=O)CCC(=O)Nc1ccc2c(c1O)C(=O)C1=C(O)[C@]3(O)C(=O)C(C(N)=O)=C(O)[C@@H](N(C)C)[C@@H]3C[C@@H]1C2`: the MIC with S. aureus RN450 (setting [3]) and in the experiment with E. coli mL308 225 (setting [4]) was above 4 µg/mL each time.
Consider `CN(C)[C@@H]1C(O)=C(C(N)=O)C(=O)[C@@]2(O)C(O)=C3C(=O)c4c(O)ccc(C(=O)CN5CCCCC5)c4C[C@H]3C[C@@H]12`, for which the MIC in the experiment with S. aureus RN450 (setting [3]) and in the experiment on E. coli mL308 225 (setting [4]) was below 4 µg/mL in each case.
Take `CN(C)C1C(O)=C(C(N)=O)C(=O)[C@@]2(O)C(O)=C3C(=O)c4c(O)c(CN)cc(-c5ccc(C(C)(C)C)cc5)c4C[C@H]3C[C@@H]12` (some centres unmarked) [HJ]: the MIC in the experiment with S. aureus RN450 (setting [1]) and with E. coli mL308 225 (setting [2]) was below 4 µg/mL in each case.
With `CN(C)[C@@H]1C(O)=C(C(N)=O)C(=O)[C@@]2(O)C(O)=C3C(=O)c4c(O)ccc(C#CCO)c4C[C@H]3C[C@@H]12`, the MIC is below 4 µg/mL in the experiment with S. aureus RN450 (setting [3]) and above 4 µg/mL with E. coli mL308 225 (setting [4]).
On to `CCOc1ccc(-c2ccc(O)c3c2C[C@H]2C[C@H]4C(N(C)C)C(O)=C(C(N)=O)C(=O)[C@@]4(O)C(O)=C2C3=O)cc1CNC(=O)NC(C)(C)C` (some centres unmarked) [HK], for which the MIC with S. aureus RN450 (setting [1]) was below 4 µg/mL; with E. coli mL308 225 (setting [2]), above 4 µg/mL.
`C[C@H]1c2c(CN)cc(C(C)(C)C)c(O)c2C(=O)C2=C(O)[C@]3(O)C(=O)C(C(N)=O)=C(O)[C@@H](N(C)C)[C@@H]3[C@@H](O)[C@@H]21`: the MIC in the experiment with S. aureus RN450 (setting [3]) and in the experiment with E. coli mL308 225 (setting [4]) was above 4 µg/mL throughout.
Take `CN(C)[C@@H]1C(O)=C(C(N)=O)C(=O)[C@@]2(O)C(O)=C3C(=O)c4c(O)ccc(C#CC5CCCCC5)c4C[C@H]3C[C@@H]12`: the MIC in the experiment on S. aureus RN450 (setting [5]) and in the experiment on E. coli mL308 225 (setting [6]) was below 4 µg/mL throughout.
For `CN(C)[C@H]1C(O)=C(C(N)=O)C(=O)[C@@]2(O)C(O)=C3C(=O)c4c(O)ccc(-c5ccc(NC(=O)C6CC6)cc5)c4C[C@H]3C[C@@H]12` [GQ], the results for the MIC in the experiment on S. aureus RN450 (setting [1]) and with E. coli mL308 225 (setting [2]) were below 4 µg/mL and above 4 µg/mL, respectively.
Take `CC1CCN(CC(=O)c2ccc(O)c3c2C[C@H]2C[C@H]4[C@H](N(C)C)C(O)=C(C(N)=O)C(=O)[C@@]4(O)C(O)=C2C3=O)CC1`: the MIC in the experiment with S. aureus RN450 (setting [3]) was below 4 µg/mL; with E. coli mL308 225 (setting [4]) it was above 4 µg/mL.
As for `Cc1ccc(-c2ccc(O)c3c2C[C@H]2C[C@H]4[C@H](N(C)C)C(O)=C(C(N)=O)C(=O)[C@@]4(O)C(O)=C2C3=O)cn1`, the MIC in the experiment with S. aureus RN450 (setting [3]) and in the experiment on E. coli mL308 225 (setting [4]) was below 4 µg/mL each time.
Take `CN(C)[C@@H]1C(O)=C(C(N)=O)C(=O)[C@@]2(O)C(O)=C3C(=O)c4c(O)ccc(-c5ccco5)c4C[C@H]3C[C@@H]12`: the MIC in the experiment on S. aureus RN450 (setting [5]) and in the experiment with E. coli mL308 225 (setting [6]) was below 4 µg/mL throughout.
Take `CCCCc1ccc(-c2cc(N(C)C)c3c(c2O)C(=O)C2=C(O)[C@]4(O)C(=O)C(C(N)=O)=C(O)[C@@H](N(C)C)[C@@H]4C[C@@H]2C3)cc1` [EI]: the MIC with S. aureus RN450 (setting [1]) and in the experiment on E. coli mL308 225 (setting [2]) was above 4 µg/mL throughout.
As to `CN(C)c1cc(CNCc2cc[n+]([O-])cc2)c(O)c2c1C[C@H]1C[C@H]3[C@H](N(C)C)C(O)=C(C(N)=O)C(=O)[C@@]3(O)C(O)=C1C2=O`, the MIC with S. aureus RN450 (setting [3]) and with E. coli mL308 225 (setting [4]) was above 4 µg/mL in each case.
Take `CC(=O)c1cc(N(C)C)c2c(c1O)C(=O)C1=C(O)[C@]3(O)C(=O)C(C(N)=O)=C(O)[C@@H](N(C)C)[C@@H]3C[C@@H]1C2` [MQ]: the MIC with S. aureus RN450 (setting [1]) and in the experiment with E. coli mL308 225 (setting [2]) was above 4 µg/mL each time.
On to `CN(C)[C@@H]1C(O)=C(C(N)=O)C(=O)[C@@]2(O)C(O)=C3C(=O)c4c(O)ccc(-c5ccc6c(c5)OCO6)c4C[C@H]3C[C@@H]12` [drawing 3286], for which the MIC with S. aureus RN450 (setting [5]) and with E. coli mL308 225 (setting [6]) was below 4 µg/mL each time.
As to `Cc1cc(-c2ccc(O)c3c2C[C@H]2C[C@H]4[C@H](N(C)C)C(O)=C(C(N)=O)C(=O)[C@@]4(O)C(O)=C2C3=O)cc(C)n1` [PD], the MIC in the experiment on S. aureus RN450 (setting [1]) and with E. coli mL308 225 (setting [2]) was below 4 µg/mL in each case.
With `C[C@H]1c2c(CN)ccc(O)c2C(=O)C2=C(O)[C@]3(O)C(=O)C(C(N)=O)=C(O)[C@@H](N(C)C)[C@@H]3[C@@H](O)[C@@H]21`, the MIC in the experiment on S. aureus RN450 (setting [3]) and with E. coli mL308 225 (setting [4]) was above 4 µg/mL each time.
As for `CN(C)c1cc(CNCC(C)(C)C)c(O)c2c1C[C@H]1C[C@H]3[C@H](N(C)C)C(O)=C(C(N)=O)C(=O)[C@@]3(O)C(O)=C1C2=O` [FD], the MIC in the experiment with S. aureus RN450 (setting [1]) and in the experiment on E. coli mL308 225 (setting [2]) was below 4 µg/mL each time.
As to `CN(C)C1C(O)=C(C(N)=O)C(=O)[C@@]2(O)C(O)=C3C(=O)c4c(O)c(CNCC(C)(C)C)cc(CNCC(C)(C)C)c4C[C@H]3C[C@@H]12` (some centres unmarked) [MU], the MIC in the experiment on S. aureus RN450 (setting [1]) and with E. coli mL308 225 (setting [2]) was below 4 µg/mL in each case.
Take `CC(C)c1cccc(-c2ccc(O)c3c2C[C@H]2C[C@H]4[C@H](N(C)C)C(O)=C(C(N)=O)C(=O)[C@@]4(O)C(O)=C2C3=O)c1`: the MIC in the experiment with S. aureus RN450 (setting [3]) and with E. coli mL308 225 (setting [4]) was below 4 µg/mL throughout.
Regarding `CN(C)[C@@H]1C(O)=C(C(N)=O)C(=O)[C@@]2(O)C(O)=C3C(=O)c4c(O)ccc(C#Cc5cccnc5)c4C[C@H]3C[C@@H]12`, the MIC with S. aureus RN450 (setting [5]) and in the experiment on E. coli mL308 225 (setting [6]) was below 4 µg/mL each time.
For the compound `CCNCc1cc(N(C)C)c2c(c1O)C(=O)C1=C(O)[C@]3(O)C(=O)C(C(N)=O)=C(O)[C@@H](N(C)C)[C@@H]3C[C@@H]1C2`, the MIC in the experiment on S. aureus RN450 (setting [3]) is below 4 µg/mL; in the experiment on E. coli mL308 225 (setting [4]), above 4 µg/mL.
The like results for `CC(C)CNC(=O)Nc1ccc(-c2ccc(O)c3c2C[C@H]2C[C@H]4[C@H](N(C)C)C(O)=C(C(N)=O)C(=O)[C@@]4(O)C(O)=C2C3=O)cc1` were, in that order, below 4 µg/mL and below 4 µg/mL.
For `CCC(=O)c1ccc(O)c2c1C[C@H]1C[C@H]3[C@H](N(C)C)C(O)=C(C(N)=O)C(=O)[C@@]3(O)C(O)=C1C2=O` [EA], the MIC in the experiment on S. aureus RN450 (setting [1]) and in the experiment with E. coli mL308 225 (setting [2]) was below 4 µg/mL in each case.
